The test deals with JNK3 (Homo sapiens, UniProt P53779). The test is described as follows: JNK3 in vitro assay (33P incorporation into c-jun, SPA). It is filed as biochemical. As to conditions: recombinant pre-activated GST-JNK3, biotinylated GST-c-Jun, 2 μM 33γ-ATP, 120 min R.T.; read-out: inhibition (IC50) with regard to JNK3. As to the method:
The phosphorylation of c-jun by JNK2 or JNK3 can be followed by monitoring the incorporation of ^33P into c-jun following the protocol below. The inhibitory activity of the compounds according to formula I, towards c-jun phosphorylation through JNK, is determined by calculating phosphorylation activity in the presence or absence of compounds according to formula I.
JNK3 and/or -2 assays are performed in 96 well MTT plates: incubation of 0.5 μg of recombinant, pre-activated GST-JNK3 or GST-JNK2 with 1 μg of recombinant, biotinylated GST-c-Jun and 2 μM ^33γ-ATP (2 nCi/μl), in the presence or absence of compounds according to formula I and in a reaction volume of 50 μl containing 50 mM Tris-HCl, pH 8.0; 10 mM MgCl2; 1 mM Dithiothreitol, and 100 μM Na3VO4. The incubation is performed for 120 min. at R.T and stopped upon addition of 200 μl of a solution containing 250 μg of Streptavidine-coated SPA beads (Amersham, Inc.)*, 5 mM EDTA, 0.1% Triton-X-100 and 50 μM ATP, in phosphate saline buffer. After incubation for 60 minutes at RT, beads are sedimented by centrifugation at 1500×g for 5 minutes, resuspended in 200 μl of PBS containing 5 mM EDTA, 0.1% Triton X-100 and 50 μM ATP and the radioactivity measured in a scintillation β counter, following sedimentation of the beads as described above. […]

SMILES strings stand for the structures.

Chain of JNK3 (P53779 whole entry, species assumed): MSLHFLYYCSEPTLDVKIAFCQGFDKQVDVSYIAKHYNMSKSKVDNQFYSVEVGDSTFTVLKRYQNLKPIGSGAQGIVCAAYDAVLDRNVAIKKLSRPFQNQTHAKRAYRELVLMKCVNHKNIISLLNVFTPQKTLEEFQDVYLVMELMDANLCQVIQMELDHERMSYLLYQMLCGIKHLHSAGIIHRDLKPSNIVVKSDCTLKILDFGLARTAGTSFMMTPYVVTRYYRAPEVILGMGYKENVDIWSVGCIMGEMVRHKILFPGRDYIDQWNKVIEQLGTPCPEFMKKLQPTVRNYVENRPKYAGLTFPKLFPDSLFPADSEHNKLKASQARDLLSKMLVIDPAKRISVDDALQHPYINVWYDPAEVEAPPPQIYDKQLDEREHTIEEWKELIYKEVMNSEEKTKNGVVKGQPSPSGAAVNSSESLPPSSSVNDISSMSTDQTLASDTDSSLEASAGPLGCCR

Regarding `CCCCCCNCCCN(C)S(=O)(=O)c1ccc(CNC(=O)c2ccc(Cl)cc2)s1` [Compound 14, 4-Chloro-N-{5-[(3-hexylamino-propyl)-methyl-sulfamoyl]-thiophen-2-ylmethyl}-benzamide], the IC50 is 0.184 µM.
With `CN(CCCNCc1ccc(C(F)(F)F)cc1)S(=O)(=O)c1ccc(CNC(=O)c2ccc(Cl)cc2)s1` [Compound 13, 4-Chloro-N-(5-{methyl-[3-(4-trifluoromethyl-benzylamino)-propyl]-sulfamoyl}-thiophen-2-ylmethyl)-benzamide], the IC50 is 0.188 µM.

These data come from patent publication US7683078B2, “Arylsulfonamide derivatives as C-Jun-N-Terminal Kinases (JNK's) inhibitors” (Laboratoires Serono S.A., priority 2001, dated 2010).
